# Key:
# morningglory = assay: Test B pre/postemergence morningglory; type: in vivo, Ipomoea hederacea
# Outline: (§1)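 Herbicidal effect was estimated by eye on a ten-point control scale after plants spent twelve to sixteen days in a greenhouse following soil or foliar treatment. Foliar sprays targeted plants at one to four leaves; all doses were formulated in a non-phytotoxic solvent with surfactant.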
# rice = assay: Test B flood test rice; type: in vivo, Oryza sativa
# Outline: (§2)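 Each value is a visual injury score relative to controls, with 10 meaning complete control and 0 no effect. Evaluation took place twelve to sixteen days after the 2-leaf-stage plants were treated and kept in the greenhouse.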
# surinam grass = assay: Test B pre/postemergence surinam grass; type: in vivo, Brachiaria decumbens
# Outline: as §1
# crabgrass = assay: Test B pre/postemergence crabgrass; type: in vivo, Digitaria sanguinalis
# Outline: as §1
# rape = assay: Test B pre/postemergence rape; type: in vivo, Brassica napus
# Outline: as §1
# corn = assay: Test B pre/postemergence corn; type: in vivo, Zea mays
# Outline: as §1
# duck salad = assay: Test B flood test duck salad; type: in vivo, Heteranthera limosa
# Outline: as §2
# cocklebur = assay: Test B pre/postemergence cocklebur; type: in vivo, Xanthium strumarium
# Outline: as §1
# blackgrass = assay: Test B pre/postemergence blackgrass; type: in vivo, Alopecurus myosuroides
# Outline: as §1
# bedstraw = assay: Test B pre/postemergence bedstraw; type: in vivo, Galium aparine
# Outline: as §1
# giant foxtail = assay: Test B pre/postemergence giant foxtail; type: in vivo, Setaria faberii
# Outline: as §1
# wild oat = assay: Test B pre/postemergence wild oat; type: in vivo, Avena fatua
# Outline: as §1
# purple nutsedge = assay: Test B pre/postemergence purple nutsedge; type: in vivo, Cyperus rotundus
# Outline: as §1
# wheat = assay: Test B pre/postemergence wheat; type: in vivo, Triticum aestivum
# Outline: as §1
# pigweed = assay: Test B pre/postemergence pigweed; type: in vivo, Amaranthus retroflexus
# Outline: as §1
# soybean = assay: Test B pre/postemergence soybean; type: in vivo, Glycine max
# Outline: as §1
# bamyardgrass = assay: Test B flood test barnyardgrass; type: in vivo, Echinochloa crus-galli
# Outline: as §2
# velvetleaf = assay: Test B pre/postemergence velvetleaf; type: in vivo, Abutilon theophrasti
# Outline: as §1
# smallflower flatsedge = assay: Test B flood test smallflower flatsedge; type: in vivo, Cyperus difformis
# Outline: as §2
# sugar beet = assay: Test B pre/postemergence sugar beet; type: in vivo, Beta vulgaris
# Outline: as §1
# [1] = Postemergence, Rate 31 g/ha, visual rating, scale 0 to 10 (0 no effect, 10 complete control)
# [2] = Postemergence, Rate 62 g/ha, scale 0 to 10, 0 is no effect, 10 is complete control
# [3] = Postemergence, Rate 125 g/ha, scale of 0 to 10 where 0 is no effect and 10 is complete control
# [4] = Preemergence, Rate 62 g/ha, scale 0 to 10 (0 no effect, 10 complete control)
# [5] = Preemergence, Rate 125 g/ha, scale of 0 to 10 where 0 is no effect and 10 is complete control
# [6] = Preemergence, Rate 250 g/ha, scale 0 to 10 (0 no effect, 10 complete control)
# [7] = Rate 31 g/ha, Pre-emergence section (flood test species), scale 0 to 10
# [8] = Rate 62 g/ha, flood test species, Pre-emergence, visual evaluation after twelve to sixteen days
# [9] = Rate 125 g/ha, under heading Pre-emergence, flood test species, visual evaluation after twelve to sixteen days
# [10] = Rate 250 g/ha, Pre-emergence (flood test species), scale 0 to 10, 0 is no effect, 10 is complete control
# [11] = Preemergence, Rate 31 g/ha, visual rating, scale 0 to 10 (0 no effect, 10 complete control)
smiles,measurement,setting,value
CCOC(=O)CC(C(=O)OCC)n1c(=O)on(C(=O)N(c2ccccc2)C(C)C)c1=O (stereo not shown) [Compound 614],Morningglory plant response rating,morningglory; [1],0
same,"Plant response rating, Morningglory",morningglory; [2],2
same,"Plant response rating, Morningglory",morningglory; [3],2
same,Morningglory plant response rating,morningglory; [4],0
same,Morningglory plant response rating,morningglory; [5],0
same,"Plant response rating, Morningglory",morningglory; [6],0
same,Rice plant response rating,rice; [7],0
same,"Plant response rating, Rice (0 to 10 scale, 0 is no effect, 10 is complete control)",rice; [8],0
same,"Rice plant response rating (0 to 10 scale, 0 is no effect, 10 is complete control)",rice; [9],0
same,Rice plant response rating,rice; [10],0
same,B. signalgrass plant response rating,surinam grass; [1],0
same,"Plant response rating, B. signalgrass",surinam grass; [2],0
same,"Plant response rating, B. signalgrass",surinam grass; [3],0
same,B. signalgrass plant response rating,surinam grass; [11],0
same,B. signalgrass plant response rating,surinam grass; [4],0
same,B. signalgrass plant response rating,surinam grass; [5],0
same,"Plant response rating, B. signalgrass",surinam grass; [6],0
same,Crabgrass plant response rating,crabgrass; [1],0
same,"Plant response rating, Crabgrass",crabgrass; [2],0
same,"Plant response rating, Crabgrass",crabgrass; [3],1
same,Crabgrass plant response rating,crabgrass; [11],0
same,Crabgrass plant response rating,crabgrass; [4],0
same,Crabgrass plant response rating,crabgrass; [5],6
same,"Plant response rating, Crabgrass",crabgrass; [6],8
same,Rape plant response rating,rape; [1],0
same,"Plant response rating, Rape",rape; [2],0
same,"Plant response rating, Rape",rape; [3],0
same,Rape plant response rating,rape; [4],0
same,Rape plant response rating,rape; [5],0
same,"Plant response rating, Rape",rape; [6],0
same,Corn plant response rating,corn; [1],0
same,"Plant response rating, Corn",corn; [2],0
same,"Plant response rating, Corn",corn; [3],0
same,Corn plant response rating,corn; [11],0
same,Corn plant response rating,corn; [4],0
same,Corn plant response rating,corn; [5],0
same,"Plant response rating, Corn",corn; [6],0
same,Ducksalad plant response rating,duck salad; [7],0
same,"Plant response rating, Ducksalad (0 to 10 scale, 0 is no effect, 10 is complete control)",duck salad; [8],0
same,"Ducksalad plant response rating (0 to 10 scale, 0 is no effect, 10 is complete control)",duck salad; [9],0
same,Ducksalad plant response rating,duck salad; [10],0
same,Cocklebur plant response rating,cocklebur; [1],0
same,"Plant response rating, Cocklebur",cocklebur; [2],0
same,"Plant response rating, Cocklebur",cocklebur; [3],0
same,Cocklebur plant response rating,cocklebur; [11],0
same,Cocklebur plant response rating,cocklebur; [4],0
same,Cocklebur plant response rating,cocklebur; [5],0
same,"Plant response rating, Cocklebur",cocklebur; [6],0
same,Blackgrass plant response rating,blackgrass; [1],0
same,"Plant response rating, Blackgrass",blackgrass; [2],0
same,"Plant response rating, Blackgrass",blackgrass; [3],0
same,Blackgrass plant response rating,blackgrass; [11],0
same,Blackgrass plant response rating,blackgrass; [4],0
same,Blackgrass plant response rating,blackgrass; [5],0
same,"Plant response rating, Blackgrass",blackgrass; [6],3
same,"Plant response rating, Bedstraw",bedstraw; [3],0
same,Bedstraw plant response rating,bedstraw; [11],0
same,Bedstraw plant response rating,bedstraw; [4],0
same,"Plant response rating, Bedstraw",bedstraw; [6],0
same,Giant foxtail plant response rating,giant foxtail; [1],0
same,"Plant response rating, Giant foxtail",giant foxtail; [2],0
same,"Plant response rating, Giant foxtail",giant foxtail; [3],0
same,Giant foxtail plant response rating,giant foxtail; [11],0
same,Giant foxtail plant response rating,giant foxtail; [4],0
same,Giant foxtail plant response rating,giant foxtail; [5],4
same,"Plant response rating, Giant foxtail",giant foxtail; [6],9
same,Wild oats plant response rating,wild oat; [1],0
same,"Plant response rating, Wild oats",wild oat; [2],0
same,"Plant response rating, Wild oats",wild oat; [3],0
same,Wild oats plant response rating,wild oat; [4],0
same,Wild oats plant response rating,wild oat; [5],0
same,"Plant response rating, Wild oats",wild oat; [6],0
same,Nutsedge plant response rating,purple nutsedge; [1],0
same,"Plant response rating, Nutsedge",purple nutsedge; [2],0
same,"Plant response rating, Nutsedge",purple nutsedge; [3],0
same,Nutsedge plant response rating,purple nutsedge; [5],0
same,"Plant response rating, Nutsedge",purple nutsedge; [6],0
same,Wheat plant response rating,wheat; [1],0
same,"Plant response rating, Wheat",wheat; [2],0
same,"Plant response rating, Wheat",wheat; [3],0
same,Wheat plant response rating,wheat; [4],0
same,Wheat plant response rating,wheat; [5],0
same,"Plant response rating, Wheat",wheat; [6],0
same,Redroot pigweed plant response rating,pigweed; [1],0
same,"Plant response rating, Redroot pigweed",pigweed; [2],0
same,"Plant response rating, Redroot pigweed",pigweed; [3],0
same,Redroot pigweed plant response rating,pigweed; [4],0
same,Redroot pigweed plant response rating,pigweed; [5],0
same,"Plant response rating, Redroot pigweed",pigweed; [6],0
same,Soybean plant response rating,soybean; [1],2
same,"Plant response rating, Soybean",soybean; [2],3
same,"Plant response rating, Soybean",soybean; [3],3
same,Soybean plant response rating,soybean; [4],0
same,Soybean plant response rating,soybean; [5],0
same,"Plant response rating, Soybean",soybean; [6],0
same,Barnyardgrass plant response rating,bamyardgrass; [7],0
same,"Plant response rating, Barnyardgrass (0 to 10 scale, 0 is no effect, 10 is complete control)",bamyardgrass; [8],0
same,"Barnyardgrass plant response rating (0 to 10 scale, 0 is no effect, 10 is complete control)",bamyardgrass; [9],0
same,Barnyardgrass plant response rating,bamyardgrass; [10],0
same,Velvetleaf plant response rating,velvetleaf; [1],0
same,"Plant response rating, Velvetleaf",velvetleaf; [2],0
same,"Plant response rating, Velvetleaf",velvetleaf; [3],0
same,Velvetleaf plant response rating,velvetleaf; [4],0
same,Velvetleaf plant response rating,velvetleaf; [5],0
same,"Plant response rating, Velvetleaf",velvetleaf; [6],0
same,S. Flatsedge plant response rating,smallflower flatsedge; [7],0
same,"Plant response rating, S. Flatsedge (0 to 10 scale, 0 is no effect, 10 is complete control)",smallflower flatsedge; [8],0
same,"S. Flatsedge plant response rating (0 to 10 scale, 0 is no effect, 10 is complete control)",smallflower flatsedge; [9],0
same,S. Flatsedge plant response rating,smallflower flatsedge; [10],0
same,Sugarbeets plant response rating,sugar beet; [1],0
same,"Plant response rating, Sugarbeets",sugar beet; [2],0
same,"Plant response rating, Sugarbeets",sugar beet; [3],0
same,Sugarbeets plant response rating,sugar beet; [4],0
same,Sugarbeets plant response rating,sugar beet; [5],0
same,"Plant response rating, Sugarbeets",sugar beet; [6],0

# Source: US6737383B1, “Herbicidal oxadiazolidines” (priority 1999, dated 2004)
